The text below walks through data of paper PMC3904506 (International journal of biological macromolecules, 2013).

Structures are written as SMILES. Structures can show the parent of a compound that is named as a salt. Where two headings read alike, the source gives them in different places.

Assay [1] has as its target T1, CDA variant Q27/A70 (Homo sapiens, UniProt P32320, K27Q). Description: Inhibition of deoxycytidine deamination, Q27/A70 variant.
In assay [2] the target is T2, CDA mutant E24Q (Homo sapiens, UniProt P32320, E24Q). In words: Inhibition of deoxycytidine deamination, E24Q mutant.
Assay [3] has as its target T3, CDA variant K27/T70 (Homo sapiens, UniProt P32320, A70T). Description: Inhibition of deoxycytidine deamination, K27/T70 variant.
Assay [4] concerns the target T3, CDA variant K27/T70. In words: Oxidative resistance experiments, K27/T70 variant. In kind it is biochemical.
The target of assay [5] is T4, CDA variant K27/A70 (Homo sapiens, UniProt P32320). Description: Oxidative resistance experiments, K27/A70 variant. Type of assay: biochemical.
Assay [6] concerns the target T1, CDA variant Q27/A70. In words: Oxidative resistance experiments, Q27/A70 variant. In kind it is biochemical.
For assay [7], the target named is T2, CDA mutant E24Q. Description: Oxidative resistance experiments, E24Q mutant. In kind it is biochemical.
The target of assay [8] is T4, CDA variant K27/A70. In words: CDA activity assay, substrate kinetics, K27/A70 variant.
The target in assay [9] is T3, CDA variant K27/T70. In words: CDA activity assay, substrate kinetics, K27/T70 variant. The following applies: 37 °C.
Assay [10] has as its target T1, CDA variant Q27/A70. Description: CDA activity assay, substrate kinetics, Q27/A70 variant. As to conditions: 37 °C.
Assay [11] addresses T2, CDA mutant E24Q. In words: CDA activity assay, substrate kinetics, E24Q mutant. The following applies: 37 °C.
Assay [12] concerns the target T4, CDA variant K27/A70. Description: Inhibition of deoxycytidine deamination, K27/A70 variant. As to conditions: double-reciprocal plots, substrate deoxycytidine.
[13] abbreviates: 100 μM NaOCl, 60 min of incubation, 37 °C.
The mark [14] stands for this setting: read-out: K0.5 (concentration at 50% inhibition of activity), NaOCl.
Where [15] appears, read: Q27/A70, double-reciprocal plots, substrate deoxycytidine.
The mark [16] stands for this setting: K27/T70, double-reciprocal plots, substrate deoxycytidine.

T2 sequence (P32320 whole entry E24Q): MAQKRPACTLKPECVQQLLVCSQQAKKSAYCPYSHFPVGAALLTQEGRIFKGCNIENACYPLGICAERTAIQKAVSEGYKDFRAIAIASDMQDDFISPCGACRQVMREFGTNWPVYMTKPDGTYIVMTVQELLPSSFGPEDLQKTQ
T3 sequence (P32320 whole entry A70T): as the sequence (P32320 whole entry E24Q) above, with Q24E, A70T counted along it
T1 sequence (P32320 whole entry K27Q): as the sequence (P32320 whole entry E24Q) above, with Q24E, K27Q counted along it

For orientation: Ki means the dissociation constant of the complex between target and ligand, obtained from inhibition or displacement. A low value points to a stronger hold on the target. For `Nc1ccn([C@@H]2O[C@H](CO)[C@@H](O)[C@H]2O)c(=O)c1` [3-Deaza-cytidine], the Ki is 1.8 µM at CDA variant Q27/A70 [1], 2.9 µM at CDA mutant E24Q [2] and 2.4 µM on CDA variant K27/T70 [3].
The term residual activity denotes what remains of the control signal, in per cent. Regarding `[Na+].[O-]Cl` [NaOCl, sodium hypochlorite], the residual activity at CDA variant K27/T70 [4] (setting [13]) amounted to 27.5%; on CDA variant K27/A70 [5] (setting [13]), 32%; at CDA variant Q27/A70 [6] (setting [13]), 49%; on CDA mutant E24Q [7] (NaOCl (100 μM, Fig. 6A), 60 min of incubation) it was 97%. In addition, the IC50 on CDA variant K27/A70 [5] (setting [14]) is 60 µM; at CDA variant Q27/A70 [6] (setting [14]), 100 µM; at CDA mutant E24Q [7] (setting [14]), 1000 µM.
For the molecule `Nc1ncn([C@@H]2O[C@H](CO)[C@@H](O)[C@@H]2O)c(=O)n1` [Fazarabine, 1-β-D-arabinofuranosyl-5-azacytosine], the “increase in catalytic efficiency with respect to the Q27/A70 and K27/T70 variants” value on CDA variant K27/A70 [8] turned out to be 3 fold.
In the case of `OO` [H2O2, hydrogen peroxide], the IC50 on CDA variant K27/T70 [4] (read-out: K0.5, H2O2) worked out at 11500 µM; at CDA variant K27/A70 [5] (read-out: K0.5, H2O2) it was 23500 µM; at CDA variant Q27/A70 [6] (read-out: K0.5, H2O2), 15000 µM; on CDA mutant E24Q [7] (read-out: K0.5, H2O2), 8000 µM.
Turning to `Nc1ccn([C@H]2C[C@H](O)[C@@H](CO)O2)c(=O)n1` [CdR, 2′-deoxycytidine], the entries for the “enthalpy of binding ΔH (van't Hoff plot)” value on CDA variant K27/A70 [8] (temperature range 10–35 °C) and on CDA variant K27/A70 [8] (temperature range 35–80 °C) were 3.57 kcal/mol and -8.88 kcal/mol, respectively.
`Nc1ccn([C@H]2CC[C@@H](CO)O2)c(=O)n1` [2′,3′-CdR, 2′,3′-dideoxycytidine]: the Km result on CDA variant K27/T70 [9], on CDA variant K27/A70 [8] (37 °C), at CDA variant Q27/A70 [10] and at CDA mutant E24Q [11] was “not substrate” throughout.
In the case of `O=C1NC(O)CCN1[C@H]1C[C@H](O)[C@@H](CO)O1` (stereo partly drawn) [Tetrahydro-2′-deoxyuridine], the Ki at CDA variant Q27/A70 [1] (setting [15]) turned out to be 0.26 µM; at CDA variant K27/A70 [12], 0.04 µM; on CDA variant K27/T70 [3] (setting [16]), 0.26 µM.
On to `Nc1ncc([C@@H]2O[C@H](CO)[C@@H](O)[C@H]2O)c(=O)[nH]1` [Pseudoisocytidine-HCl], for which the Ki was 46 µM at CDA variant Q27/A70 [1] (setting [15]), 28 µM at CDA variant K27/A70 [12] and 60 µM at CDA variant K27/T70 [3] (setting [16]).
